According to patent US8101605B2, “SHIP1 modulators and methods related thereto” (Aquinox Pharmaceuticals Inc., priority 2009, dated 2012):

How the values were obtained:
[1] = system: allergen-induced passive cutaneous anaphylaxis; test: Passive cutaneous anaphylaxis in rats; assay type: in vivo; conditions: oral gavage
Protocol: The activity of representative compounds on passive cutaneous anaphylaxis in rats was evaluated according to the procedures disclosed by Goose et al., Immunology 16, 749-760, 1969, which is incorporated herein by reference in its entirety. To induce a passive cutaneous anaphylaxis, rats underwent dorsal intradermal inoculation with 50 μL of anti-ovalbumin-IgE. Sixteen hours after inoculation, all rats were administered test compound by oral gavage (PO). Sixty minutes after oral administration, rats were given a tail vein injection of 5 mg Evan's blue and 1 mg ovalbumin. Sixty minutes following the ovalbumin injection, rats were euthanized using CO2 inhalation. Subsequently, skin edema was visualized, measured and scored. When tested in this assay, representative Compound.

[2] = system: carrageenan-induced paw edema; test: Carrageenan paw edema in mice; assay type: in vivo; conditions: oral, doses less than 30 mg/kg, 4 hours after carrageenan
Protocol: The activity of representative compounds on carrageenan paw edema in mice was evaluated according to the procedures disclosed by Winter et al., Proc Soc Exp Biol Med 111, 544-547, 1962, which is incorporated herein by reference in its entirety. To induce edema in the paw, test compounds were administered orally one hour before intraplantar injection of the right hind paw with carrageenan (50 μL of 1% suspension). Hind paw edema, as a measure of inflammation, was recorded using a plethysmometer (Ugo Basile, Italy) 4 hours after λ-carrageenan administration.

| SMILES | inhibition of allergen-induced passive cutaneous anaphylaxis ([1]; 30 mg/kg) [%] | inhibition of allergen-induced passive cutaneous anaphylaxis ([1]; 100 mg/kg) [%] | inhibition of carrageenan-induced paw edema [2] [%] |
| --- | --- | --- | --- |
| CC1(C)CCC[C@]2(C)[C@H]3CS(=O)(=O)c4cc(O)cc(O)c4[C@]3(C)CC[C@@H]12 [Compound No. 28, (1R,10R,11S,16S)-3,5-dihydroxy-1,11,15,15-tetramethyl-8-thiatetracyclo[8.8.0.0^2,7.0^11,16]octadeca-2,4,6-triene-8,8-dione] | 26 | 38 |  |
| Cc1cc(O)cc2c1[C@]1(C)CC[C@H]3C(C)(C)CCC[C@]3(C)[C@H]1CO2 [Compound No. 6, (1R,10R,11S,16S)-1,3,11,15,15-pentamethyl-8-oxatetracyclo[8.8.0.0^2,7.0^11,16]octadeca-2,4,6-trien-5-ol] | 14 | 29 | 24 |
